Test results: patent US12428415B2, “Matriptase 2 inhibitors and uses thereof” (Disc Medicine, Inc., priority 2018, dated 2025)

What follows are compounds tested against T1, Human Recombinant Matriptase 2 (Homo sapiens, UniProt Q8IU80) (assay: Matriptase 2 fluorescence based inhibition assay, Method A (100 mM TRIS pH 9, 1 mg/mL BSA)). Conditions: 1 uM; Assay Used A; read-out: Mar-2 % inhibition at 1 uM.
T1 construct: purchased Enzo Life Sciences (an in-house preparation was also used) ALX-201-752-1
T1 sequence (Q8IU80 1-811): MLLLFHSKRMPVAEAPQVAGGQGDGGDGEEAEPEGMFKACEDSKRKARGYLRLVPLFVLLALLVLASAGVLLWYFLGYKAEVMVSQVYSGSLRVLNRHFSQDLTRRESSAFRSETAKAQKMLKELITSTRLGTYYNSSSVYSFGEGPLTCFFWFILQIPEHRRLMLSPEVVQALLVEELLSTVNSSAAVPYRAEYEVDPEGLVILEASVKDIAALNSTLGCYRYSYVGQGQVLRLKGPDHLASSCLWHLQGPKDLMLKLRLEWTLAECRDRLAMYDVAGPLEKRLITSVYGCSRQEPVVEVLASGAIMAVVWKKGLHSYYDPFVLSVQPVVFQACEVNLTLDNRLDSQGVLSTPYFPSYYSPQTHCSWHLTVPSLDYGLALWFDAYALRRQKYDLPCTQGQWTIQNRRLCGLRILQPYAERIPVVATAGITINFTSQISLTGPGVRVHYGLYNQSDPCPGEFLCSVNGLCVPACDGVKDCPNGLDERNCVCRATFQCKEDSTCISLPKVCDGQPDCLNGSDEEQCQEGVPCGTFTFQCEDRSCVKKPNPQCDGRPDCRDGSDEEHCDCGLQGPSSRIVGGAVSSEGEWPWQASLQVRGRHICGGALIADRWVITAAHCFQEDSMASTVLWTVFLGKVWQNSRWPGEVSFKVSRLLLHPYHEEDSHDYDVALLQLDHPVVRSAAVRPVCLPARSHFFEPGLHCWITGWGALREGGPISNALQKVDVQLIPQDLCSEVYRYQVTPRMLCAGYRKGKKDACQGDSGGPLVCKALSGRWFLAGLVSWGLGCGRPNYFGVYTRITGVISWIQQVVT
Format: biochemical
Procedure, shortened: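 At 25° C in 100 mM TRIS pH 9 with 1 mg/mL BSA and 1% DMSO, compounds were preincubated 30 min with 7 nM commercial or 15 nM in-house protein before adding 100 μM Boc-Gln-Ala-Arg-7-amido-4-methyl coumarin. Fluorescence at 360/480 nm after 60 min; single points at 1 and 10 μM, IC50 by variable-slope nonlinear regression.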

| Structure (SMILES) | inhibition at 1 µM [%] |
| --- | --- |
| N=C(N)c1ccc2cc(C(=O)Nc3ccc(F)cc3)n(CCS(=O)(=O)c3ccccc3)c2c1 [Compound I-42] | 0 to 25 |
| N=C(N)c1ccc2cc(C(=O)N[C@H]3CC[C@H](NC(=O)c4ccccn4)CC3)n(Cc3ccc(C(F)(F)F)cc3)c2c1 [Compound I-9, 6-carbamimidoyl-N-((1r,4r)-4-(picolinamido)cyclohexyl)-1-(4-(trifluoromethyl)benzyl)-1H-indole-2-carboxamide] | 25 to 50 |
| N=C(N)c1ccc2cc(C(=O)Nc3ccc(CN4CCCC4)cc3)n(Cc3ccc(C(N)=O)cc3)c2c1 [Compound I-114] | 25 to 50 |
| N=C(NC(=O)Oc1ccccc1)c1ccc2cc(C(=O)Nc3cccc(N4CCCC4)c3)n(Cc3ccc(C(N)=O)cc3)c2c1 [Compound I-148] | 0 to 25 |
| N=C(N)c1ccc2cc(C(=O)Nc3ccc4[nH]cnc4c3)n(Cc3ccc(C(N)=O)cc3)c2c1 [Compound I-74] | 0 to 25 |

Further lines, results first:

| inhibition at 1 µM [%] | Structure (SMILES) |
| --- | --- |
| 0 to 25 | C[C@H](NC(=O)OC(C)(C)C)C(=O)O/N=C(\N)c1ccc2cc(C(=O)Nc3cccc(N4CCCC4)c3)n(Cc3ccc(C(N)=O)cc3)c2c1 [Compound I-158, (S)-tert-butyl (1-(((amino(1-(4-carbamoylbenzyl)-2-((3-(pyrrolidin-1-yl)phenyl)carbamoyl)-1H-indol-6-yl)methylene)amino)oxy)-1-oxopropan-2-yl)carbamate] |
| 25 to 50 | CC(C)OC(=O)NC(=N)c1ccc2cc(C(=O)Nc3cccc(N4CCCC4)c3)n(Cc3ccc(C(N)=O)cc3)c2c1 [Compound I-142] |

Same assay, conditions: at 1 uM; Assay Used = A; read-out: Mar-2 % inhibition at 1 uM

| inhibition at 1 µM [%] | Structure (SMILES) |
| --- | --- |
| 50 to 75 | N=C(N)c1ccc2cc(C(=O)N[C@H]3CC[C@H](N)CC3)n(Cc3cccc(NC(=O)CCN)c3)c2c1 [Compound I-257, N-((1r,4r)-4-aminocyclohexyl)-1-(3-(3-aminopropanamido)benzyl)-6-carbamimidoyl-1H-indole-2-carboxamide] |
| 0 to 25 | N=C(N)c1ccc2cc(C(=O)N3CCC(F)(F)CC3)n(Cc3ccc(C(N)=O)cc3)c2c1 [Compound I-327] |
| 0 to 25 | N=C(N)NCCC1CCN(C(=O)c2cc3ccc(C(=N)N)cc3n2Cc2ccc(-c3ccccc3)cc2)CC1 [Compound I-361] |
